Data set [1] addresses T1, GPR35 (Homo sapiens (Human), UniProt Q9HC97). To be noted: reported in US20130316985; read-out: EC50 (weak agonist activity at GPR35); cited from earlier work.
Target sequence in this assay (Q9HC97 whole entry, species assumed): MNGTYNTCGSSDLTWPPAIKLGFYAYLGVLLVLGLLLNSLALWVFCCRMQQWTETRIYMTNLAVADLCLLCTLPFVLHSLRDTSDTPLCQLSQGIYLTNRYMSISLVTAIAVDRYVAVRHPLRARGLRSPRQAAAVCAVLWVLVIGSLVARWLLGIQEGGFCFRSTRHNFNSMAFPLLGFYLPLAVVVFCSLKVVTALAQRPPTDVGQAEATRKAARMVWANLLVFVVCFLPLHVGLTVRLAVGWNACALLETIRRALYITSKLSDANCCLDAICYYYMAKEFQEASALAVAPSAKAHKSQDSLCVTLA
Data set [2] has as its target T1, GPR35. Particulars: human vs rat GPR35; cited from earlier work.
Target sequence in this assay (Q9HC97 whole entry): as the sequence (Q9HC97 whole entry, species assumed) above
The next data set deals with Human GPR35a isoform (Homo sapiens (Human), UniProt Q9HC97). Nature of the data set: Human GPR35a isoform binding (radioligand, HEK293f membranes). Particulars: HEKf cell membranes overexpressing GPR35a isoform; read-out: Human GPR35 Ki. Here is the method:
Overexpression of Human GPR35a Baculovirus in HEK293f cells at a cell density of 2.5×10^6 cells/mL and a multiplicity of infection of 2.5 over 24 h in Pro293 (Lonza)+5% FBS, 1% Glutamax and 0.4% Pen/Strep. Cells harvested and centrifuged at 2500 RPM for 10 mins at 4° C. The supernatant was then poured off and the pellet stored at −80° C. The pellet was defrosted and re-suspended in 15 mL of homogenising buffer (20 mM HEPES, 10 mM EDTA, pH 7.4). Then homogenised in mechanical homogeniser (VMR) for 10 seconds. The membrane was centrifuged in centrifuge tubes at 40,000 g for 15 mins at 4° C. The supernatant was poured away and re-suspended in 15 mL of homogenising buffer. Homogenised for 20 seconds. The membrane was centrifuged at 40,000 g for 45 mins at 4° C. The membrane was re-suspended in 3 mL of storage buffer (20 mM HEPES, 0.1 mM EDTA, pH 7.4) mixing well. The resulting membranes were then stored at −80°. GPR35 cell membrane homogenates were re-suspended in the binding buffer (50 mM TRIS+10 mM MgCl2 pH 7.4) to a final assay concentration of 5 ug/well. Test compounds were diluted in dimethylsulphoxide (DMSO (Sigma Aldrich, UK)), to form a 10 point ½ log concentration curve. Test compounds were added per plate, followed by 7 nM 3H-27966. 0.1 uM FAC Lodoxamide was added in order to allow non-specific binding to be calculated. Finally, membrane was added to each well on the plate. After 60 min incubation at room temperature, membranes were filtered onto a unifilter, 96-well white microplate with bonded GF/B filter, pre-soaked in ddH20, with a TomTec cell harvester, and washed 5 times with distilled water. Plates were dried prior to 50 ul/well scintillant added, sealed and radioactivity measured using a MicroBeta analyser. IC50 values were derived from the inhibition curve and affinity constant (Ki) values were calculated using the Cheng-Prussoff equation, where; pKi=−log 10 Ki.
(§1) • Ki values derived from concentration response analysis in HEKf cell membranes overexpressing GPR35a isoform. EC50 values derived from concentration response analysis in HT-29 cell line endogenously expressing human GPR35.

Data set [3] concerns the target T1, GPR35. Nature of the data set: Label-free DMR functional assay in HT-29 cells. The class given is cell-based. Particulars: for EC50: HT-29 cell line endogenously expressing human GPR35, DMR normalised to Lodoxamide. Here is the method: HT-29 cells (ATCC HTB-38) kept in continuous culture in McCoys (Thermo 16600082) supplemented with 10% FBS. Day prior to assay, cells harvested with TrypLE (Gibco12604-013), and plated at 20 k/well in culture media in a total volume of 50 ul in Corning EPIC 384 well plates (5040) overnight 37° C. 5% CO2. On the day of assay, cell media was removed and replaced with assay buffer (HBSS+20 mM HEPES pH7.4) and reincubated for 1 h. Compounds were prepared in 100% DMSO in ECHO LDV 384 source plates. Cell plates were read on an EPIC plate reader at room temperature for 15 mins, read paused, and cell plate added to LabCyte ECHO 550 for addition of 50 nl per well compound by acoustic transfer. Plates were immediately placed back into the EPIC reader, read unpaused and Dynamic Mass Redistribution measured for 60 minutes. Raw data was analysed by EPIC Analyser software and max peak taken per concentration to enable EC50 determination. All raw DMR data was normalised to Lodoxamide and buffer corrected.
as §1
Target sequence in this assay (Q9HC97 whole entry): as the sequence (Q9HC97 whole entry, species assumed) above

For data set [4], the system named is PGE2-induced fluid secretion. Put plainly: PGE2-induced fluid secretion. The class given is in vivo. To be noted: preclinical species.
The test system of data set [5] is indomethacin ileitis and barrier permeability. Nature of the data set: indomethacin ileitis and barrier permeability. Type of data set: in vivo. Particulars: preclinical species.
A further data set concerns TNBS visceral pain. Put plainly: TNBS mouse visceral pain model. The class given is in vivo.
In another data set the test system is LPS challenge. Put plainly: acute rat and mouse LPS challenge. The class given is in vivo.
The target of data set [6] is T1, GPR35. Put plainly: selectivity for GPR35 / off-target effects.
Target sequence in this assay (Q9HC97 whole entry, species assumed): as above
Data set [7] relates to major human CYPs, including CYP3A4. Put plainly: drug interaction potential for major human CYPs. Type of data set: in vitro ADME.

Like-named read-outs stand apart in the source and are kept apart here.

Human GPR35a isoform, sequence (Q9HC97 whole entry, canonical isoform): as the sequence (Q9HC97 whole entry, species assumed) above

By EC50 is commonly meant the concentration that produces a half-maximal response. As to `Nc1ccc(O)c(C(=O)O)c1` [5-aminosalicylic acid], the EC50 on GPR35 [1] was about 3000 nM.
For the compound `O=C(O)c1cc(=O)c2ccccc2[nH]1` [kynurenic acid], the “potency at the human receptor lower compared to the rat ortholog” value at GPR35 [2] is reported as “at least 100 fold”.
As for `O=C(O)c1cc(/N=N/c2ccc(S(=O)(=O)Nc3ccccn3)cc2)ccc1O` [sulfasalazine], the EC50 at GPR35 [1] was about 3000 nM.
What is called Ki is the equilibrium dissociation constant of an inhibitor or competing ligand from its target. Take `O=C(NCc1ccccc1)c1ccc(-c2cc(Nc3c(O)c(=O)c3=O)cc(-c3nn[nH]n3)c2)cc1` [Example 5, N-benzyl-3′-((2-hydroxy-3,4-dioxocyclobut-1-en-1-yl)amino)-5′-(1H-tetrazol-5-yl)-[1,1′-biphenyl]-4-carboxamide]: the inhibitory constant (Ki) at Human GPR35a isoform worked out at 0.08 nM. Besides, the EC50 at GPR35 [3] was 0.52 nM. The “functional potency for GPR35 higher than Cromolyn” value on GPR35 [3] (relative to Cromolyn) was “about 500 times”. In addition, the “pharmacology in PGE2-induced fluid secretion” value in [4] is given as “showed pharmacology”. In addition, the “pharmacology in indomethacin ileitis and barrier permeability” value in [5] is “showed pharmacology”. In addition, the “pharmacology in TNBS mouse visceral pain model” value in the data set on TNBS visceral pain is given as “showed pharmacology”. Also, in the data set with LPS challenge, the “pharmacology in acute rat and mouse LPS challenge” value is “showed pharmacology”. For the same compound, on GPR35 [6], the off-target effects result is given as “no off-target effects have been observed” and the “selectivity for GPR35” value is reported as “strong selectivity”. Also, in data set [7], the “drug interaction potential for the major human CYPs” value is recorded as “very low drug interaction potential”.
As to `O=c1c(O)c(Nc2cc(-c3ccc(OCc4ccc(C(F)(F)F)cc4)nc3)cc(-c3nn[nH]n3)c2)c1=O` [Example 20, 3-((3-(1H-tetrazol-5-yl)-5-(6-((4-(trifluoromethyl)benzyl)oxy)pyridin-3-yl)phenyl)amino)-4-hydroxycyclobut-3-ene-1,2-dione], the Ki at Human GPR35a isoform was 1.06 nM. The compound further came in with a half-maximal effective concentration (EC50) on GPR35 [3] of 7.68 nM.
`O=c1c(O)c(Nc2cc(-c3ccc4nn(Cc5ccc(C(F)(F)F)cc5)cc4c3)cc(-c3nn[nH]n3)c2)c1=O` [Example 19, 3-((3-(1H-tetrazol-5-yl)-5-(2-(4-(trifluoromethyl)benzyl)-2H-indazol-5-yl)phenyl)amino)-4-hydroxycyclobut-3-ene-1,2-dione]: the Ki on Human GPR35a isoform came out at 0.36 nM. At GPR35 [3], the EC50 was 0.08 nM.
`NC(=O)c1ccc(CNC(=O)c2ccc(-c3cc(Nc4c(O)c(=O)c4=O)cc(-c4nn[nH]n4)c3)cc2)cc1` [Example 31, N-(4-carbamoylbenzyl)-3′-((2-hydroxy-3,4-dioxocyclobut-1-en-1-yl)amino)-5′-(1H-tetrazol-5-yl)-[1,1′-biphenyl]-4-carboxamide]: the Ki at Human GPR35a isoform turned out to be 1.61 nM. The EC50 at GPR35 [3] was 11.3 nM.
`COc1cccc(-c2cc(Nc3c(O)c(=O)c3=O)cc(-c3nn[nH]n3)c2)c1` [Example 9, 3-hydroxy-4-((3′-methoxy-5-(1H-tetrazol-5-yl)-[1,1′-biphenyl]-3-yl)amino)cyclobut-3-ene-1,2-dione]: the Ki on Human GPR35a isoform worked out at 0.46 nM. Moreover, the EC50 on GPR35 [3] came out at 0.83 nM.
As to `CN(C)C(=O)c1ccc(-c2cc(Nc3c(O)c(=O)c3=O)cc(-c3nn[nH]n3)c2)cc1` [Example 30, 3′-((2-hydroxy-3,4-dioxocyclobut-1-en-1-yl)amino)-N,N-dimethyl-5′-(1H-tetrazol-5-yl)-[1,1′-biphenyl]-4-carboxamide], the inhibition constant Ki on Human GPR35a isoform came to 5.99 nM. The same compound came in with an EC50 on GPR35 [3] of 2.64 nM.
